The values below come from BindingDB's records for doi:10.1016/j.bmcl.2009.04.023 (Banyu Pharmaceutical, 2009).

Chain of Nociceptin receptor (P41146 whole entry): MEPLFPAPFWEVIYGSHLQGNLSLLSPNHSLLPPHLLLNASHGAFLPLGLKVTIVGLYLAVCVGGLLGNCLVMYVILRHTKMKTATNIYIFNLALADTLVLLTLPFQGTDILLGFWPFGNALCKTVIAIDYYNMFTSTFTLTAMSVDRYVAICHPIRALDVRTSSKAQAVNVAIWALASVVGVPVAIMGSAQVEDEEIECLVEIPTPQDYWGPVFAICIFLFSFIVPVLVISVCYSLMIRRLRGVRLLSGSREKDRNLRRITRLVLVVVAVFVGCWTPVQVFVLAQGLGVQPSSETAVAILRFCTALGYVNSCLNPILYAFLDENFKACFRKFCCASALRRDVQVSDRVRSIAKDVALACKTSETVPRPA

The target of this assay is Nociceptin receptor (Homo sapiens, UniProt P41146). In words: In Vitro Binding Assay (IC50) and In Vitro Agonism/Antagonism Measurements (EC50/IC50). To be noted: pH 7.4; 37 °C. As for the experimental part:
Compounds were tested for their inhibitory effects on ligand binding to the human ORL1 receptor. Bound and free radioligands are separated by filtration using a unifilter plate GF/C-96. The remaining radioactivity on the filter was counted using a TopCount-HTS (PerkinElmer). Specific binding of [125I][Tyr14]nociceptin is defined as the difference between total binding and nonspecific binding in the presence of 1 uM nociceptin. J-113397 was used as internal control across all assay plates for internal validation. IC50 values are calculated using GraphPad Prism. Agonist/antagonist activities were measured by the [35S]GTPgamma-S binding to proteins using membrane fractions of CHO cells expressing ORL1. Nonspecific binding is determined in the presence of 10 uM unlabeled GTPgammaS. Membrane-bound radioactivity is measured using a TopCount-HTS (PerkinElmer). Specific binding of [35S]GTPgammaS is determined as a difference between the control (in the presence of appropriate concentration of nociceptin), and the baseline (in the presence of DMSO instead of compound). EC50/IC50 values are calculated from % of specific binding in the presence of various concentration of the compound using GraphPad Prism 3.03.
For `CCN1CCN(c2cc3[nH]c(C(=O)[C@]4(C)CC[C@@H](NC(=O)OC)CC4)nc3cc2C)CC1` [2-Cyclohexylcarbonylbenzimidazole, 7b], the IC50 turned out to be 5.3 nM.
In turn, `CCN1CCN(c2cc3[nH]c(C(=O)[C@]4(C)CC[C@@H](NC(=O)OC)CC4)nc3cc2Cl)CC1` [2-Cyclohexylcarbonylbenzimidazole, 7a] showed an IC50 of 7.5 nM.
`CCN1CCN(c2cc3[nH]c(C(=O)[C@]4(C)CC[C@@](C)(O)CC4)nc3cc2Cl)CC1` [2-Cyclohexylcarbonylbenzimidazole, 7c] gave an IC50 of 1.3 nM.
In the case of `CCN1CCN(c2cc3[nH]c(C(=O)[C@]4(CC)CC[C@@](C)(O)CC4)nc3cc2Cl)CC1` [2-Cyclohexylcarbonylbenzimidazole, 7e], the IC50 came out at 2.4 nM.
For `CCN1CCN(c2cc3[nH]c(C(=O)C4(C)CCC(=O)CC4)nc3cc2Cl)CC1` [2-Cyclohexylcarbonylbenzimidazole, 9] the value was 38 nM.

The IC50 is the concentration that inhibits the measured activity by half. Higher therefore signals lower potency.
